Measurements reported in patent publication US9351489B2 (priority 2010, dated 2016).

Legend:
[1] = logP by HPLC on reversed phase columns (EEC directive 79/831 Annex V.A8); format: physicochemical; details: for chromatographic logP: reversed phase HPLC columns
Protocol: Measurement of logP values was performed according EEC directive 79/831 Annex V.A8 by HPLC (High Performance Liquid Chromatography) on reversed phase columns with the following methods:
^[a] measurement of LC-MS was done at pH 2.7 with 0.1% formic acid in water and with acetonitrile (contains 0.1% formic acid) as eluent with a linear gradient from 10% acetonitrile to 95% acetonitrile. […]

Phytophthora infestans = format: in vivo; details: tomato plants, preventive spray, 500 ppm of active ingredient, evaluated 7 days after inoculation; 0% = untreated control, 100% = no disease
Plasmopara viticola = experiment: Plasmopara test (grapevines)/preventive; format: in vivo; details: preventive spray, 100 ppm of active ingredient, evaluated 6 days after inoculation, 0% = untreated control, 100% = no disease
Protocol: Plasmopara Test (Grapevines)/Preventive • Solvent: 24.5 parts by weight of acetone • 24.5 parts by weight of dimethylacetamide • Emulsifier: 1 part by weight of alkylaryl polyglycol ether
To produce a suitable preparation of active compound, 1 part by weight of active compound is mixed with the stated amounts of solvent and emulsifier, and the concentrate is diluted with water to the desired concentration. To test for preventive activity, young plants are sprayed with the preparation of active compound at the stated rate of application. After the spray coating has dried on, the plants are inoculated with an aqueous spore suspension of Plasmopara viticola and then remain for 1 day in an incubation cabinet at approximately 20° C. and a relative atmospheric humidity of 100%. The plant is subsequently placed for 4 days in a greenhouse at approximately 21° C. and a relative atmospheric humidity of approximately 90%. The plants are then misted and placed for 1 day in an incubation cabinet. The test is evaluated 6 days after the inoculation. 0% means an efficacy which corresponds to that of the untreated control, while an efficacy of 100% means that no disease is observed.

[2] = method [a]: LC-MS at pH 2.7, 0.1% formic acid in water / acetonitrile, gradient 10% to 95% acetonitrile
[3] = pH 2.7, value in preparation example text, method not given
[4] = pH 2.7, method [a]: LC-MS at pH 2.7, 0.1% formic acid in water / acetonitrile, gradient 10% to 95% acetonitrile

CC(C)C(C)NC(=C(C#N)C(=O)C1CCOC1)c1ccccc1Br (mixture of isomers) [Example 1]
LogP [1, 2]: 3.60^[a]

CC(C)C(C)NC(=C(C#N)C(=O)C1CCCCO1)c1ccccc1Br (mixture of isomers) [Example 26]
LogP [1, 2]: 3.80^[a]

CC(NC(=C(C#N)C(=O)C1CCOC1)c1ccccc1Br)C1CC1 (mixture of isomers) [Example 30]
LogP [1, 2]: 3.25^[a]

CC(C)C(C)NC(=CC#N)c1ccccc1Cl (stereo not shown) [3-(2-chlorophenyl)-3-[(3-methylbutan-2-yl)amino]acrylonitrile]
chromatographic logP [1, 3]: 3.27

N#CC=C(Cl)c1ccccc1Cl [3-chloro-3-(2-chlorophenyl)acrylonitrile]
chromatographic logP [1, 3]: 3.02 | LogP ([1]; value in preparation example text, method not given): 3.23

CC(C)C(C)NC(=C(C#N)C(=O)CC1CC1)c1ccccc1Cl (stereo not shown) [Example 2]
LogP [1, 2]: 4.27^[a]

COCCC(=O)C(C#N)=C(NC(C)C1CC1)c1ccccc1Br (stereo not shown) [Example 3]
LogP [1, 2]: 3.20^[a]

CC(C)C(C)NC(=C(C#N)C(=O)C1CCCC1)c1ccccc1Br (stereo not shown) [Example 4]
LogP [1, 2]: 5.05^[a]

COCC(=O)C(C#N)=C(NC(C)C1CC1)c1ccccc1Br (stereo not shown) [Example 5]
LogP [1, 2]: 3.00^[a] | Efficacy in % (Phytophthora infestans): 93%

CC(C)C(C)NC(=C(C#N)C(=O)c1ccco1)c1ccccc1Cl (stereo not shown) [Example 6]
LogP [1, 2]: 3.87^[a]

CC(NC(=C(C#N)C(=O)CCl)c1ccccc1Br)C1CC1 (stereo not shown) [Example 7]
LogP [1, 2]: 3.50^[a]

CC(C)C(C)NC(=C(C#N)C(=O)C1CC1)c1ccccc1Br (stereo not shown) [Example 8]
LogP [1, 2]: 4.21^[a]

CCC(=O)C(C#N)=C(NC(C)C(C)C)c1ccccc1Br (stereo not shown) [Example 9]
LogP [1, 2]: 4.04^[a]

CC(NC(=C(C#N)C(=O)c1ccco1)c1ccccc1Br)C1CC1 (stereo not shown) [Example 10]
LogP [1, 2]: 3.50^[a]

CC(NC(=C(C#N)C(=O)C1CCC1)c1ccccc1Br)C1CC1 (stereo not shown) [Example 11]
LogP [1, 2]: 4.20^[a]

CCCCC(=O)C(C#N)=C(NC(C)C(C)C)c1ccccc1Br (stereo not shown) [Example 12]
LogP [1, 2]: 4.85^[a]

CCCC(=O)C(C#N)=C(NC(C)C(C)C)c1ccccc1Cl (stereo not shown) [Example 13, 2-{(2-chlorophenyl)[(3-methylbutan-2-yl)amino]methylene}-3-oxohexanenitrile]
chromatographic logP [1, 4]: 4.44 | chromatographic logP [1, 3]: 4.44

CCCCC(=O)C(C#N)=C(NC(C)C(C)C)c1ccccc1Cl (stereo not shown) [Example 14]
LogP [1, 2]: 4.81^[a]

CCCCC(=O)C(C#N)=C(NC(C)C1CC1)c1ccccc1Br (stereo not shown) [Example 15]
LogP [1, 2]: 4.40^[a]

CC(C)C(C)NC(=C(C#N)C(=O)CC1CC1)c1ccccc1Br (stereo not shown) [Example 16]
LogP [1, 2]: 4.34^[a] | Efficacy in % (Phytophthora infestans): 95%

CCCC(=O)C(C#N)=C(NC(C)C(C)C)c1ccccc1Br (stereo not shown) [Example 17]
LogP [1, 2]: 4.40^[a] | Efficacy in % (Plasmopara viticola): 93% | Efficacy in % (Phytophthora infestans): 100%

CC(C)C(C)NC(=C(C#N)C(=O)CCl)c1ccccc1Cl (stereo not shown) [Example 18]
LogP [1, 2]: 3.78^[a]

COCC(=O)C(C#N)=C(NC(C)C(C)C)c1ccccc1Br (stereo not shown) [Example 19]
LogP [1, 2]: 3.27^[a] | Efficacy in % (Plasmopara viticola): 74% | Efficacy in % (Phytophthora infestans): 95%

CC(NC(=C(C#N)C(=O)C1CC1)c1ccccc1Br)C1CC1 (stereo not shown) [Example 20]
LogP [1, 2]: 3.90^[a]

CNCC(=O)C(C#N)=C(NC(C)C(C)C)c1ccccc1Cl (stereo not shown) [Example 21]
LogP [1, 2]: 1.89^[a]

CC(C)C(C)NC(=C(C#N)C(=O)C1CCC1)c1ccccc1Br (stereo not shown) [Example 22]
LogP [1, 2]: 4.64^[a]

COCC(=O)C(C#N)=C(NC(C)C(C)C)c1ccccc1Cl (stereo not shown) [Example 23]
LogP [1, 2]: 3.21^[a]

CC(NC(=C(C#N)C(=O)CC1CC1)c1ccccc1Br)C1CC1 (stereo not shown) [Example 24]
LogP [1, 2]: 4.06^[a] | Efficacy in % (Phytophthora infestans): 85%

CC(NC(=C(C#N)C(=O)Cc1ccccc1)c1ccccc1Br)C1CC1 (stereo not shown) [Example 25]
LogP [1, 2]: 4.20^[a]

COCCC(=O)C(C#N)=C(NC(C)C(C)C)c1ccccc1Cl (stereo not shown) [Example 27]
LogP [1, 2]: 3.55^[a]

CCC(=O)C(C#N)=C(NC(C)C1CC1)c1ccccc1Br (stereo not shown) [Example 28]
LogP [1, 2]: 3.60^[a]

CC(NC(=C(C#N)C(=O)C1CCCC1)c1ccccc1Br)C1CC1 (stereo not shown) [Example 29]
LogP [1, 2]: 4.60^[a]

CC(C)C(C)NC(=C(C#N)C(=O)C1CC1)c1ccccc1Cl (stereo not shown) [Example 31]
LogP [1, 2]: 4.18^[a]

C[C@H](NC(=C(C#N)C(=O)C1CCCCO1)c1ccccc1Br)C1CC1 (stereo partly shown) [Example 32]
LogP [1, 2]: 3.50^[a]

CC(C)CC(=O)C(C#N)=C(N[C@@H](C)C(C)C)c1ccccc1Cl [Example 33]
LogP [1, 2]: 4.73^[a]

CCCC(=O)C(C#N)=C(N[C@@H](C)C1CC1)c1ccccc1Br [Example 34]
LogP [1, 2]: 4.10^[a] | Efficacy in % (Phytophthora infestans): 93%

CCCC(=NOC)C(C#N)=C(NC(C)C(C)C)c1ccccc1Cl (stereo not shown) [Example 35, 2-{(2-chlorophenyl)[(3-methylbutan-2-yl)amino]methylene}-3-(methoxyimino)hexanenitrile]
chromatographic logP [1, 4]: 5.34 | chromatographic logP [1, 3]: 5.34

CCCC(=NC#N)C(C#N)=C(N[C@@H](C)C(C)C)c1ccccc1Cl [Example 36]
LogP [1, 2]: 3.85^[a]
